Data: ChEMBL document CHEMBL2146393, “Synthesis and antiviral activity of 4,6-disubstituted pyrimido[4,5-b]indole ribonucleosides” (Bioorg Med Chem, 2012)
Activity calls are given as the source filed them. The calls are words filed in the database; no cut-off is given here.

Assays:
THP-1 = test: Cytotoxicity against human THP1 cells after 96 hrs by CCK8 assay; assay type: cell-based; details: THP-1, 96 h
HL-60 [1] = test: Cytotoxic activity against human HL60 cells; assay type: cell-based
HeLa [2] = test: Cytostatic activity against human HeLa cells; assay type: cell-based
HL-60 [3] = test: Cytostatic activity against human HL60 cells; assay type: cell-based
CCRF-CEM [4] = test: Cytostatic activity against human CCRF-CEM cells; assay type: cell-based
Hepatitis C virus = test: Antiviral activity against Hepatitis C virus; assay type: functional, organism-based; details: Hepacivirus hominis
[5] = Cytotoxicity against human HepG2 cells after 96 hrs by CCK8 assay; assay type: cell-based
CCRF-CEM [6] = test: Cytotoxic activity against human CCRF-CEM cells; assay type: cell-based
HeLa [7] = test: Cytotoxic activity against human HeLa cells; assay type: cell-based
dengue virus type 2 = test: Antiviral activity against Dengue virus 2 NGC infected in human HuH7-Ehr2 cells after 48 hrs by luciferase reporter gene assay; assay type: functional, organism-based; details: Huh-7, 48 h

IC50 (dengue virus type 2) [µM] | Structure (SMILES) | IC50 (THP-1) [µM] | Activity (HL-60 [1]) | Activity (HeLa [2]) | Activity (HL-60 [3]) | Activity (CCRF-CEM [4]) | Activity (Hepatitis C virus) | CC50 at 96 h [5] [µM] | Activity (CCRF-CEM [6]) | Activity (HeLa [7])
32.1 | OC[C@H]1O[C@@H](n2c3ccc(-c4ccoc4)cc3c3c(-c4ccco4)ncnc32)[C@H](O)[C@@H]1O | 45 | Non-toxic | Non-toxic | Non-toxic | Non-toxic | inactive | 33.1 | Non-toxic | Non-toxic
87 | OC[C@H]1O[C@@H](n2c3ccc(Cl)cc3c3c(-c4ccsc4)ncnc32)[C@H](O)[C@@H]1O | > 50 | Non-toxic | Non-toxic | Non-toxic | Non-toxic | inactive | > 50 | Non-toxic | Non-toxic
0.976 | OC[C@H]1O[C@@H](n2c3ccc(Cl)cc3c3c(-c4cc5ccccc5o4)ncnc32)[C@H](O)[C@@H]1O | > 50 | Non-toxic | Non-toxic | Non-toxic | Non-toxic | inactive | > 50 | Non-toxic | Non-toxic
24.4 | OC[C@H]1O[C@@H](n2c3ccc(Cl)cc3c3c(-c4ccoc4)ncnc32)[C@H](O)[C@@H]1O | > 50 | Non-toxic | Non-toxic | Non-toxic | Non-toxic | inactive | > 50 | Non-toxic | Non-toxic
17.9 | OC[C@H]1O[C@@H](n2c3ccc(-c4ccco4)cc3c3c(-c4ccco4)ncnc32)[C@H](O)[C@@H]1O | > 50 | Non-toxic | Non-toxic | Non-toxic | Non-toxic | inactive | 7.44 | Non-toxic | Non-toxic
82.7 | OC[C@H]1O[C@@H](n2c3ccccc3c3c(-c4ccco4)ncnc32)[C@H](O)[C@@H]1O | > 50 | Non-toxic | Non-toxic | Non-toxic | Non-toxic | inactive | > 50 | Non-toxic | Non-toxic
0.335 | OC[C@H]1O[C@@H](n2c3ccc(Cl)cc3c3c(-c4cccs4)ncnc32)[C@H](O)[C@@H]1O | 45.9 | Non-toxic | Non-toxic | Non-toxic | Non-toxic | inactive | 19.9 | Non-toxic | Non-toxic
2.91 | OC[C@H]1O[C@@H](n2c3ccc(-c4ccccc4)cc3c3c(-c4ccco4)ncnc32)[C@H](O)[C@@H]1O | 41.3 | Non-toxic | Non-toxic | Non-toxic | Non-toxic | inactive | 20.7 | Non-toxic | Non-toxic

Structure (SMILES) | IC50 (dengue virus type 2) [µM] | IC50 (THP-1) [µM] | Activity (HL-60 [1]) | Activity (HeLa [2]) | Activity (HL-60 [3]) | Activity (CCRF-CEM [4]) | Activity (Hepatitis C virus) | CC50 at 96 h [5] [µM] | Activity (CCRF-CEM [6]) | Activity (HeLa [7])
OC[C@H]1O[C@@H](n2c3ccc(Cl)cc3c3c(-c4ccco4)ncnc32)[C@H](O)[C@@H]1O | 0.238 | 1.56 | Non-toxic | Non-toxic | Non-toxic | Non-toxic | inactive | 0.175 | Non-toxic | Non-toxic
OC[C@H]1O[C@@H](n2c3ccc(Cl)cc3c3c(-c4ccccc4)ncnc32)[C@H](O)[C@@H]1O | 26.4 | > 50 | Non-toxic | Non-toxic | Non-toxic | Non-toxic | inactive | > 50 | Non-toxic | Non-toxic
